According to patent publication US20220232831A1, “NOVEL NON-CODING HETEROCYCLIC AMINO ACIDS (NCHAA) AND THEIR USE AS HERBICIDES” (Fortephest Ltd., priority 2019, published 2022):

Legend:
[1] = system: Romaine lettuce (Lactuca sativa L.) plants; experiment: Post-emergency herbicidal activity on Romaine lettuce plants; format: in vivo; settings: Romaine lettuce at stage 2 to 3 leaves; compound in 0.1% Silwet, up to 0.5%; visual evaluation vs control plants
Method: The tests were performed on Romaine lettuce (Lactuca sativa L.) plants at the stage 2 to 3 leaves. The plants were grown on 300 well trays packed with soil, well dimensions 2×2×5 cm. Each compound was dissolved in 0.1% water solution of agronomically acceptable surfactant Silwet to final concentrations ranging from 0.0% (Control) to 0.5%. Two weeks after the treatment the herbicidal effects of the respective test material were visually evaluated by a comparison with the control plants. In addition, the aboveground part of the plant was neatly cut and weighed (wet weight). Each test was performed on 20 to 40 plants. The degree of growth inhibition and damage was evaluated according to the parameters in Table 2. Plant development at 7, 14, and 21 DAA (days after application) were evaluated on a scale of 0 to 100, in which score 0 represents dead plants and score 100 represents healthy plants according to plant vigor, height, and leaf color. Each test included 20 to 40 plants.

[2] = system: Seeds of Lettuce R. (Super-Jericho); experiment: Filter paper bioassay with lettuce seeds (germination and early plant development); format: in vivo; settings: lettuce seeds on filter paper; 1, 0.1, 0.01, 0.001 mM; radicle and shoots assessed after 6 days
Method: Seeds of Lettuce R. (Super-Jericho, non-sterilized) were obtained from Ben Shahar Moshe Ltd., 99% purity.
Filter Paper Bioassays with Lettuce Seeds:
The protocol is following Bertin et al. 2009 and Movellan et al. 2014 with specified modifications as described below.
Seeds were placed on Whatman no. 1 filter paper (Whatman, Middlesex, U.K.) in Petri dishes (10 seeds per plate) supplemented with 2.0 ml of water (Control) or with a solution comprising 1 mM, 0.1 mM, 0.01 mM and 0.001 mM of test material. Petri dishes with seeds were placed in a tray at an angle of 45°. The trays were kept in dark for 48 hours and then transferred to the growth chamber (22° C., 0.045 mmol×m−2×s−1 photosynthetic photon flux density; 6/18 dark/light cycle) for additional 4 days. Each experiment was performed at least in two repeats. The development of radicle and shoots of experimental and control plants were visually assessed 6 days after the beginning of the test to determine Minimal Effective Concentration (MEC) of test material. In the context of the invention, MEC is defined as the lowest concentration level of a test material that caused deviation (absence of germination or malformation of radicle and shoots) from the plant's development in the Control group.

NC(Cc1ccnnc1)C(=O)O (centres unmarked) [Code 601]
post-emergency herbicidal activity (Activity Index: plant's development vs Control) [1]: Weak (More than 75)
Minimal Effective Concentration (MEC) as activity score, seeds germination & early plants development [2]: Weak (More than 1 mM)

CCOC(=O)C(CN(C(=O)O)S(=O)(=O)c1cc(Cl)sc1Cl)NC(=O)O (centres unmarked) [Code 526]
post-emergency herbicidal activity (Activity Index: plant's development vs Control) [1]: Weak (More than 75)
Minimal Effective Concentration (MEC) as activity score, seeds germination & early plants development [2]: Weak (More than 1 mM)

NC(CC1CCSC1)C(=O)O (centres unmarked) [Code 562]
post-emergency herbicidal activity (Activity Index: plant's development vs Control) [1]: Weak (More than 75)
Minimal Effective Concentration (MEC) as activity score, seeds germination & early plants development [2]: Weak (More than 1 mM)

NC(Cc1cnc(O)c([N+](=O)[O-])c1)C(=O)O (centres unmarked) [Code 665]
post-emergency herbicidal activity (Activity Index: plant's development vs Control) [1]: Weak (More than 75)
Minimal Effective Concentration (MEC) as activity score, seeds germination & early plants development [2]: Moderate (1 mM)

Nc1cc(CC(N)C(=O)O)ccn1 (centres unmarked) [Code 608]
post-emergency herbicidal activity (Activity Index: plant's development vs Control) [1]: Moderate (From 50 to 75)
Minimal Effective Concentration (MEC) as activity score, seeds germination & early plants development [2]: Moderate (1 mM)

COC(=O)C(N)CNS(=O)(=O)c1ccsc1 (centres unmarked) [Code 507]
post-emergency herbicidal activity (Activity Index: plant's development vs Control) [1]: Weak (More than 75)
Minimal Effective Concentration (MEC) as activity score, seeds germination & early plants development [2]: Weak (More than 1 mM)

NC(Cc1ccncn1)C(=O)O (centres unmarked) [Code 625]
post-emergency herbicidal activity (Activity Index: plant's development vs Control) [1]: Weak (More than 75)
Minimal Effective Concentration (MEC) as activity score, seeds germination & early plants development [2]: Moderate (1 mM)

NC(Cc1cc[nH]c(=O)c1)C(=O)O (centres unmarked) [Code 642]
post-emergency herbicidal activity (Activity Index: plant's development vs Control) [1]: Weak (More than 75)
Minimal Effective Concentration (MEC) as activity score, seeds germination & early plants development [2]: Weak (More than 1 mM)

CCCOC(=O)C(N)Cc1ccnc(Br)c1 (centres unmarked) [Code 654]
post-emergency herbicidal activity (Activity Index: plant's development vs Control) [1]: Strong (From 25 to 50)
Minimal Effective Concentration (MEC) as activity score, seeds germination & early plants development [2]: Strong (0.1 mM)

CCCOC(=O)C(N)Cc1c(F)cnc(Br)c1F (centres unmarked) [Code 656]
post-emergency herbicidal activity (Activity Index: plant's development vs Control) [1]: Very Strong (From 15 to 25)
Minimal Effective Concentration (MEC) as activity score, seeds germination & early plants development [2]: Strong (0.1 mM)

CCCOC(=O)C(N)Cc1cc(Cl)oc1Cl (centres unmarked) [Code 575]
post-emergency herbicidal activity (Activity Index: plant's development vs Control) [1]: Moderate (From 50 to 75)
Minimal Effective Concentration (MEC) as activity score, seeds germination & early plants development [2]: Strong (0.1 mM)

NC(Cc1cnsn1)C(=O)O (centres unmarked) [Code 529]
post-emergency herbicidal activity (Activity Index: plant's development vs Control) [1]: Moderate (From 50 to 75)
Minimal Effective Concentration (MEC) as activity score, seeds germination & early plants development [2]: Strong (0.1 mM)

NC(Cc1ccsc1)C(=O)NCCOCCO (centres unmarked) [Code 549]
post-emergency herbicidal activity (Activity Index: plant's development vs Control) [1]: Weak (More than 75)
Minimal Effective Concentration (MEC) as activity score, seeds germination & early plants development [2]: Weak (More than 1 mM)

NC(CC(=O)O)c1cscc1Br (centres unmarked) [Code 511]
post-emergency herbicidal activity (Activity Index: plant's development vs Control) [1]: Weak (More than 75)
Minimal Effective Concentration (MEC) as activity score, seeds germination & early plants development [2]: Weak (More than 1 mM)

CCOC(=O)C(Cc1ccnc(OC)n1)NC(C)=O (centres unmarked) [Code 673]
post-emergency herbicidal activity (Activity Index: plant's development vs Control) [1]: Weak (More than 75)
Minimal Effective Concentration (MEC) as activity score, seeds germination & early plants development [2]: Weak (More than 1 mM)

NC(Cc1cc(=O)[nH]cn1)C(=O)O (centres unmarked) [Code 645]
post-emergency herbicidal activity (Activity Index: plant's development vs Control) [1]: Weak (More than 75)
Minimal Effective Concentration (MEC) as activity score, seeds germination & early plants development [2]: Weak (More than 1 mM)

NC(Cc1cnc[nH]c1=O)C(=O)O (centres unmarked) [Code 646]
post-emergency herbicidal activity (Activity Index: plant's development vs Control) [1]: Weak (More than 75)
Minimal Effective Concentration (MEC) as activity score, seeds germination & early plants development [2]: Weak (More than 1 mM)

CCOC(=O)C(N)CNS(=O)(=O)c1cc(Br)sc1Br (centres unmarked) [Code 580]
post-emergency herbicidal activity (Activity Index: plant's development vs Control) [1]: Very Strong (From 15 to 25)
Minimal Effective Concentration (MEC) as activity score, seeds germination & early plants development [2]: Strong (0.1 mM)

NC(CNS(=O)(=O)c1c(Cl)sc(Cl)c1C(F)(F)F)C(=O)O (centres unmarked) [Code 521]
post-emergency herbicidal activity (Activity Index: plant's development vs Control) [1]: Weak (More than 75)
Minimal Effective Concentration (MEC) as activity score, seeds germination & early plants development [2]: Weak (More than 1 mM)

Nc1ccnc(CC(N)C(=O)O)c1 (centres unmarked) [Code 607]
post-emergency herbicidal activity (Activity Index: plant's development vs Control) [1]: Weak (More than 75)
Minimal Effective Concentration (MEC) as activity score, seeds germination & early plants development [2]: Weak (More than 1 mM)

CCOC(=O)C(Cc1nc(Cl)sc1Cl)NC(C)=O (centres unmarked) [Code 567]
post-emergency herbicidal activity (Activity Index: plant's development vs Control) [1]: Maximal (Less than 15)
Minimal Effective Concentration (MEC) as activity score, seeds germination & early plants development [2]: Weak (More than 1 mM)

NC(Cc1cncc(S)c1)C(=O)O (centres unmarked) [Code 612]
post-emergency herbicidal activity (Activity Index: plant's development vs Control) [1]: Weak (More than 75)
Minimal Effective Concentration (MEC) as activity score, seeds germination & early plants development [2]: Weak (More than 1 mM)

NC(CCc1cc[nH]c1)C(=O)O (centres unmarked) [Code 702]
post-emergency herbicidal activity (Activity Index: plant's development vs Control) [1]: Weak (More than 75)
Minimal Effective Concentration (MEC) as activity score, seeds germination & early plants development [2]: Weak (More than 1 mM)

CCOC(=O)C(Cc1cc(Cl)oc1Cl)NC(C)=O (centres unmarked) [Code 574]
post-emergency herbicidal activity (Activity Index: plant's development vs Control) [1]: Moderate (From 50 to 75)
Minimal Effective Concentration (MEC) as activity score, seeds germination & early plants development [2]: Strong (0.1 mM)

O=C(O)[C@@H](O)Cc1c[nH]cn1 [Code 710]
post-emergency herbicidal activity (Activity Index: plant's development vs Control) [1]: Weak (More than 75)
Minimal Effective Concentration (MEC) as activity score, seeds germination & early plants development [2]: Weak (More than 1 mM)

Nc1cc(Cl)nc(CC(N)C(=O)O)n1 (centres unmarked) [Code 616]
post-emergency herbicidal activity (Activity Index: plant's development vs Control) [1]: Weak (More than 75)
Minimal Effective Concentration (MEC) as activity score, seeds germination & early plants development [2]: Weak (More than 1 mM)

NC(Cc1cnc(Br)c(Br)c1)C(=O)O (centres unmarked) [Code 633]
post-emergency herbicidal activity (Activity Index: plant's development vs Control) [1]: Strong (From 25 to 50)
Minimal Effective Concentration (MEC) as activity score, seeds germination & early plants development [2]: Strong (0.1 mM)

CCCCOC(=O)C(Cc1nsc(Cl)n1)NC(C)=O (centres unmarked) [Code 595]
post-emergency herbicidal activity (Activity Index: plant's development vs Control) [1]: Strong (From 25 to 50)
Minimal Effective Concentration (MEC) as activity score, seeds germination & early plants development [2]: Strong (0.1 mM)

CCOC(=O)C(Cc1nc[nH]n1)NC(=O)OCc1ccccc1 (centres unmarked) [Code 714]
post-emergency herbicidal activity (Activity Index: plant's development vs Control) [1]: Weak (More than 75)
Minimal Effective Concentration (MEC) as activity score, seeds germination & early plants development [2]: Moderate (1 mM)

Cc1c(Cl)sc(Cl)c1S(=O)(=O)NCC(N)C(=O)O (centres unmarked) [Code 515]
post-emergency herbicidal activity (Activity Index: plant's development vs Control) [1]: Weak (More than 75)
Minimal Effective Concentration (MEC) as activity score, seeds germination & early plants development [2]: Weak (More than 1 mM)

N#Cc1cc(C[C@H](N)C(=O)O)cs1 [Code 509]
post-emergency herbicidal activity (Activity Index: plant's development vs Control) [1]: Maximal (Less than 15)
Minimal Effective Concentration (MEC) as activity score, seeds germination & early plants development [2]: Strong (0.1 mM)

NC(Cc1ccc(=O)[nH]c1)C(=O)O (centres unmarked) [Code 650]
post-emergency herbicidal activity (Activity Index: plant's development vs Control) [1]: Weak (More than 75)
Minimal Effective Concentration (MEC) as activity score, seeds germination & early plants development [2]: Moderate (1 mM)

Cl.Cl.NC(Cc1ncccn1)C(=O)O (centres unmarked) [Code 618]
post-emergency herbicidal activity (Activity Index: plant's development vs Control) [1]: Weak (More than 75)
Minimal Effective Concentration (MEC) as activity score, seeds germination & early plants development [2]: Weak (More than 1 mM)

NC(Cc1cc(Cl)nc(Cl)c1)C(=O)O (centres unmarked) [Code 628]
post-emergency herbicidal activity (Activity Index: plant's development vs Control) [1]: Very Strong (From 15 to 25)
Minimal Effective Concentration (MEC) as activity score, seeds germination & early plants development [2]: Moderate (1 mM)

CCOC(=O)C(Cc1ccsc1)NC(C)=O (centres unmarked) [Code 571]
post-emergency herbicidal activity (Activity Index: plant's development vs Control) [1]: Very Strong (From 15 to 25)
Minimal Effective Concentration (MEC) as activity score, seeds germination & early plants development [2]: Strong (0.1 mM)

O=C1C=C(CC(NP(=O)(O)O)C(=O)O)C(=O)S1 (centres unmarked) [Code 565]
post-emergency herbicidal activity (Activity Index: plant's development vs Control) [1]: Weak (More than 75)
Minimal Effective Concentration (MEC) as activity score, seeds germination & early plants development [2]: Strong (0.1 mM)

NC(CC1CCS(=O)(=O)C1)C(=O)O (centres unmarked) [Code 561]
post-emergency herbicidal activity (Activity Index: plant's development vs Control) [1]: Weak (More than 75)
Minimal Effective Concentration (MEC) as activity score, seeds germination & early plants development [2]: Weak (More than 1 mM)

CCOCCOCCOC(=O)C(N)Cc1ccc(Br)nc1 (centres unmarked) [Code 675]
post-emergency herbicidal activity (Activity Index: plant's development vs Control) [1]: Moderate (From 50 to 75)
Minimal Effective Concentration (MEC) as activity score, seeds germination & early plants development [2]: Strong (0.1 mM)

Nc1cccc(CC(N)C(=O)O)n1 (centres unmarked) [Code 609]
post-emergency herbicidal activity (Activity Index: plant's development vs Control) [1]: Weak (More than 75)
Minimal Effective Concentration (MEC) as activity score, seeds germination & early plants development [2]: Weak (More than 1 mM)

NC(Cc1ccc(Cl)nc1)C(=O)O (centres unmarked) [Code 627]
post-emergency herbicidal activity (Activity Index: plant's development vs Control) [1]: Moderate (From 50 to 75)
Minimal Effective Concentration (MEC) as activity score, seeds germination & early plants development [2]: Strong (0.1 mM)
